Assays:
Type in all cases: in vivo
[1] = test system: Spodoptera eridania, 3rd instar larvae, southern armyworm; experiment: Southern armyworm 3rd instar test, dipped limabean leaf; conditions: for ARMYWORM Day 3: rating at 3 days; for ARMYWORM Day 5: rating at 5 days
Method in brief: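 Compound dissolved in 35% acetone/water at 10,000 ppm stock, diluted with water. Sieva limabean leaves dipped 3 s, dried, and exposed to ten 3rd instar larvae on damp filter paper. Mortality, reduced feeding and molting interference scored at 3 and 5 days on a rating scale.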

[2] = test system: Heliothis virescens, egg, tobacco budworm; experiment: Tobacco budworm egg test, dipped cotton leaf and eggs; parameters: key: 0: no effect; 10-25% kill; 26-35% kill; 36-45% kill; 46-55% kill; 56-65% kill; 66-75% kill; 76-85% kill; 86-99% kill; 9: 100% kill; conditions: 1000 ppm; mortality rating after 3 days
Method in brief: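 Compound dissolved at 10,000 ppm in 35% aqueous acetone, diluted with water. A cotton leaf and a cheesecloth square with roughly 50-100 eggs aged 6-30 h are each dipped for about 3 s, then combined and kept humid. Mortality counted after 3 days and rated on a scale.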

[3] = test system: Spodoptera eridania, 3rd instar larvae, southern armyworm; experiment: Southern armyworm 7-day residual test; conditions: R designates Residual: 7-day residual foliage, concentration not given; for ARMYWORM Day 3 R: rating at 3 days; for ARMYWORM Day 5 R: rating at 5 days
Method in brief: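 Compound was dissolved in 35% aqueous acetone (10,000 ppm stock) and diluted with water before treating lima bean leaves. The leaves were aged 7 days under high-intensity greenhouse lamps (14 h day). Third-instar Spodoptera eridania larvae were then assayed on the foliage and rated on a scale.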

[4] = test system: Spodoptera eridania, 3rd instar larvae, southern armyworm; experiment: Southern armyworm systemic uptake (stem systemic) test; parameters: key: 0: no effect; 10-25% kill; 26-35% kill; 36-45% kill; 46-55% kill; 56-65% kill; 66-75% kill; 76-85% kill; 86-99% kill; 9: 100% kill; conditions: cut stem in emulsion 3 days
[5] = test system: Empoasca abrupta, adult, western potato leafhopper; experiment: Western potato leafhopper systemic uptake test; parameters: key: 0: no effect; 10-25% kill; 26-35% kill; 36-45% kill; 46-55% kill; 56-65% kill; 66-75% kill; 76-85% kill; 86-99% kill; 9: 100% kill; conditions: 100 ppm; systemic uptake; rating scale 0-9
Method in brief: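 Cut Sieva lima bean stems stood 3 days at 27 °C in aqueous emulsion of test material (100 ppm, further 10-fold dilutions) for systemic uptake. One leaf then exposed to about 10 adult leafhoppers in a moist petri dish; mortality counted after 2 days and rated on a scale.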

[6] = test system: Diabrotic undecimpunctata howardi, 3rd instar southern corn rootworm; experiment: Southern corn rootworm soil test; parameters: key: 0: no effect; 10-25% kill; 26-35% kill; 36-45% kill; 46-55% kill; 56-65% kill; 66-75% kill; 76-85% kill; 86-99% kill; 9: 100% kill; conditions: 50 (ppm as headed), mortality rating after 6 days
Method in brief: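 Compound applied in acetone to talc at 1.25 and 0.25 mg active ingredient per jar (about 50 and 10 kg/ha), dried, then mixed with millet seed and moist soil. Ten 3rd instar larvae added per jar; mortality counted at 6 days, with missing larvae scored dead. Results rated on a scale.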

Compound: FC(F)(F)c1c(Br)c(-c2ccc(Cl)c(Cl)c2)n(CSC2=NCCCN2)c1C(F)(F)F [Example 17]
- ARMYWORM Day 3 ([1]; 10 ppm): 9 (100% kill)
- ARMYWORM Day 5 ([1]; 10 ppm): 9 (100% kill)
- ARMYWORM Day 3 ([1]; 100 ppm): 9 (100% kill)
- ARMYWORM Day 5 ([1]; 100 ppm): 9 (100% kill)
- ARMYWORM Day 3 ([1]; 1000 ppm): 9 (100% kill)
- ARMYWORM Day 5 ([1]; 1000 ppm): 9 (100% kill)
- TOBACCO BUDWORM Egg [2]: 0
- ARMYWORM Day 3 R [3]: 9 (100% kill)
- ARMYWORM Day 5 R [3]: 9 (100% kill)
- ARMYWORM Stem Sys [4]: 0
- LEAFHOPPER Systemic [5]: 0
- SOUTHERN CORN ROOTWORM [6]: 7 (76-85% kill)

Compound: CCOC(=S)SCn1c(Cl)c(C#N)c(Cl)c1-c1ccc(Cl)c(Cl)c1 [Example 37]
- ARMYWORM Day 3 ([1]; 10 ppm): 9 (100% kill)
- ARMYWORM Day 5 ([1]; 10 ppm): 9 (100% kill)
- ARMYWORM Day 3 ([1]; 100 ppm): 9 (100% kill)
- ARMYWORM Day 5 ([1]; 100 ppm): 9 (100% kill)
- ARMYWORM Day 3 ([1]; 1000 ppm): 9 (100% kill)
- ARMYWORM Day 5 ([1]; 1000 ppm): 9 (100% kill)
- TOBACCO BUDWORM Egg [2]: 0
- ARMYWORM Day 3 R [3]: 9 (100% kill)
- ARMYWORM Day 5 R [3]: 9 (100% kill)
- ARMYWORM Stem Sys [4]: 0
- LEAFHOPPER Systemic [5]: 0
- SOUTHERN CORN ROOTWORM [6]: 0
